The values that follow come from patent publication US20190315775A1, “MODIFIED […] AND PHARMACEUTICAL COMPOSITION HAVING SAME AS ACTIVE INGREDIENT” (KEIO UNIVERSITY, priority 2016, published 2019).

Test [1] concerns MDA-MB-231 (human breast cancer cells). In words: WST-1 proliferation assay (Example 10), MDA-MB-231. The class given is cell-based. The settings on record: WST-1, 48 hours. The procedure: (§1) Cancer cells used herein were KMS34 (human myeloma cells), HeLa (human cervical cancer cells), HCT116 (human colon cancer cells; p53+/+), KATOIII (human stomach cancer cells), MDA-MB-231 (human breast cancer cells), HT-29 (human colon adenocarcinoma cells), PANC-1 (human pancreatic cancer cells), and Li-7 (human liver cancer cells). Proliferation assay of various cancer cells was performed by the WST-1 method (Cook, J A. & Mitchell, J B., Anal. Biochem., 179, 1-7, 1984) as follows. One μ1 each of PEG11(E)-TC11 and PEG11(O)-TC11 prepared in advance at target concentrations was added into each well of a 96-well microplate. Medium was added to the wells at 50 μl per well, and then mixed by tapping lightly the plate. Subsequently, KMS34 was prepared at a concentration of 5×10^5 cells/ml, and cells other than KMS34 were prepared at a concentration of 2×10^5 cells/ml. Cells were seeded at 50 μl per well (2.5×10^4 cells, 1×10^4 cells), and then incubated in a CO2 incubator (37° C., 5% CO2) for 48 hours. […] Subsequently, the plate was shaken with a plate reader for 1 minute, and then absorbance was measured at 450 nm. At this time, absorbance was also measured at 595 nm as a reference wavelength. The net absorbance was obtained by subtracting the absorbance at the reference wavelength from the absorbance at 450 nm.
(Tetrazolium assays rely on reduction of a dye to a coloured formazan, in cell work by metabolically active cells.)

For test [2], the system named is various high-risk MM cells (KMM1, KMS11, KMS21, KMS26, KMS27, KMS28, KMS34, MUM24). Kind of test: MTT cell viability of various MM cells, PEG11(E)-TC11 vs lenalidomide (Example 9). The class given is cell-based, human. The settings on record: 48 hours, FIG. 5A.
The subject of test [3] is PANC-1 (human pancreatic cancer cells). Kind of test: WST-1 proliferation assay (Example 10), PANC-1. The test is classed as cell-based. The settings on record: WST-1, 48 hours. The procedure: as §1
Test [4] deals with high-risk MM cells (MUM24). In words: Apoptosis induction, Annexin V/PI flow cytometry. The settings on record: MUM24, 10 μM, 24, 48 and 72 hours. The class given is cell-based, human. The procedure:
For observation of apoptosis induction caused by drugs, TC11 and PEG11(E)-TC11, one type of MM cells, MUM24 cells were treated with TC11 and PEG11(E)-TC11, Annexin V/PI staining was performed, and then analysis was conducted using a flow cytometer. More specifically, MUM24 was adjusted at 2.0×10^5 cells/mL, and then 1.95 mL each thereof was seeded to a 6-well plate. From the next day, TC11 and PEG11(E)-TC11 were added in such a manner that the final concentrations were 0, and 10 μM, and then cells were cultured at 37° C. for 24, 48, and 72 hours. Each cell (1.5 ml each) was collected, and then washed twice with Phosphate Buffered Saline (PBS, Sigma-Aldrich). Subsequently, each resultant was suspended again in a solution prepared by adding 5 μL of Annexin V-FITC and 5 μL of Propidium Iodide (PI) to 500 μL of 1×Binding Buffer in Annexin V-FITC Apoptosis Detection Kit (Bio Vision, California, USA), and then left to stand in the dark for 5 minutes. Fluorescence intensity was measured using BD™ LSR II Flow Cytometer (Becton, Dickinson and company, New Jersey, USA). Wavelengths to be measured were excitation wavelength of 488 nm, and fluorescence wavelengths of 530±15 nm for Annexin V-FITC and 610±10 nm for PI.
Background: A flow cytometer gives signals particle by particle.

The subject of a further test is KMS11 xenograft. In words: Antitumor effect on KMS11 cancer-bearing mice (Example 17). The settings on record: Day 9, i.p., equimolar to TC11 60 mg/kgBW. The class given is in vivo, ICR/SCID mice. As to the method: KMS11 was administered to 5-week-old ICR/SCID mice at 2×10^7 cells/mouse via hypodermic injection. Tumor volumes were measured over time, and the day on which the tumor volume exceeded 50 mm^3 was designated as Day 1 and observation was performed for 9 days. […] On the day of administration, these solutions were diluted 10-fold with physiological saline while stirring with Vortex, and then intraperitoneally administered. Tumor volume was calculated by the following formula.
Tumor volume (mm^3)=major axis×minor axis×minor axis×π/6=major axis×minor axis×minor axis×0.5236

In test [5] the test system is KMM1 high-risk MM cell line. In words: WST-1 cell proliferation inhibition (Example 8), KMM1. The class given is cell-based. The settings on record: Homo sapiens, KMM-1, WST-1, 48 hours, read-out: IC50, cell proliferation inhibitory activity, KMM1. The procedure:
Similar to Example 7, high-risk MM cell lines were treated with drugs, TC11 and PEG5(E)-TC11 at arbitrary concentrations. […] Specifically, each high-risk MM cell line was prepared at 5×10^5 cells/ml, and then seeded at 50 μl per well (2.5×10^4 cells). Drugs such as TC11, and PEG5(E)-TC11 were added to wells at arbitrary concentrations. WST-1 reagent was added at 48 hours after addition of drugs. After 1 hour of reaction at 37° C. in a CO2 incubator, absorbance was measured at a wavelength of 450 nm using a microplate reader. Cell viability was found from an absorbance ratio using absorbance at 0 μM designated as 100%. IC50 was calculated from a semi-logarithmic chart using Microsoft (registered trademark) Excel.

With `COCCOCCOCCOCCOCCOCCOCCOCCOCCOCCOCCOCCC(=O)OCCOc1cc2c(cc1N)C(=O)N(c1c(C(C)C)cccc1C(C)C)C2=O` [PEG11(E)-TC11], the IC50 in test [1] was found to be 11 µM; in test [3] it was 14 µM. For the same compound, the “In vitro cell proliferation inhibitory activity against various high-risk MM cells” value in test [2] is “significant in vitro cell proliferation inhibitory activity”. Moreover, the “Apoptosis induction (Annexin V+/PI− and Annexin V+/PI+ fractions)” value in test [4] is reported as “clearly induce apoptosis”.
As to `COCCOCCOCCOCCOCCOCCOCCOCCOCCOCCOCCOCCOc1cc2c(cc1N)C(=O)N(c1c(C(C)C)cccc1C(C)C)C2=O` [PEG11(O)-TC11], the IC50 in test [1] was 80 µM; in test [3], 75 µM.
For the compound `CC(C)c1cccc(C(C)C)c1N1C(=O)c2ccc(N)cc2C1=O` [TC11, 2-(2,6-di-isopropylphenyl)-5-amino-1H-isoindole-1,3-dione, reference compound], the “KMS-11 tumor growth compared to control mice” value in the test with KMS11 xenograft was “tumor growth was suppressed”. Also, the “Apoptosis induction (Annexin V+/PI− and Annexin V+/PI+ fractions)” value in test [4] is “clearly induce apoptosis”. The IC50 in test [5] worked out at 5.7 µM.
